Test results: patent US8629272B2, “Tricyclic pyrimidine derivatives as wnt antagonists” (Deutsches Krebsforschungszentrum, priority 2009, dated 2014)

Tests used:
Format in all cases: cell-based
Wnt signalling pathway = experiment: Wnt-sensitive reporter gene assay (6xTCF-luciferase, pTOP-FLASH) in Hek293T cells; set-up: Normalized Wnt pathway (inhibitory) activity: scale not given here
Protocol: To screen for small-molecule modulators of the Wnt signalling pathway, a reporter gene based assay describing the modulation of the TCF4 transcription factor was used. More specifically 4000 Hek293T cells were seeded into 384 high density plates. 24 h after seeding a Wnt-sensitive reporter (6×TCF-luciferase (Firefly) (pTOP-FLASH; “Armadillo co activates transcription driven by the product of the drosophila segment polarity gene dTCF”, Cell, 1997, 88(6), pages 789-799) and constitutively expressed control reporter (Renilla luciferase pCMV-RL) were transfected into Hek293T. Wnt signaling was stimulated by cotransfecting mouse Wnt1, mouse Frizzled 8 and human LRP6 according to “Casein kinase 1 gamma couples Wnt receptor activation to cytoplasmic signal transduction”, Nature, 2005, 438 (7069), pages 867-872. 24 h after pathway stimulation compounds were added at a concentration of 10 microM and allowed to incubate for 24 h. For the evaluation of the IC50 the compound was applied in increasing concentrations yielding final concentrations per well of 5 nM-100 microM.

Hek293T = experiment: Cytotoxicity in Hek293T, CellTiterGlo; conditions: 24 h
Protocol: (§1) For examination of cytotoxicity in these cancer cell lines the commercial available CellTiterGlo® Reagent (Promega, USA) was used according to the manufactor. Compounds were applied to Hek293T (denoted (1)) or HepG2 (denoted (2)), cultured in Dulbecco's Modified Eagles Medium, supplemented with 10% fetal calf serum and 1% penicillin/streptomycin. Cells were grown in T75 flasks at 37° C., 5% CO2 and trypsinized when 60-80% confluent by adding 2 ml of 0.25% Trypsin-EDTA solution. Cells were then re-suspended into culture medium yielding approx. 4000 cells (1) or 4500 cells (2), suspended in 30 microl medium. 48 h after cell seeding, compounds were added to yield the desired final concentrations. 24 h after compound addition cytotoxicity was evaluated. For this purpose the media was removed and CellTiterGlo® was added according to the manufactors manual. In this assay the luciferase emission readout is directly correlated with the cellular amount of ATP, low luciferase emission thus is reflecting cytotoxicity of a compound. For the evaluation of the IC50 the compound was applied in increasing concentrations yielding final concentrations per well of 5 nM-100 microM.

HepG2 = experiment: Cytotoxicity in HepG2, CellTiterGlo; conditions: 24 h
Protocol: as §1

[1] = tested on: human colon carcinoma cells HCT116; experiment: Antiproliferative activity against HCT116, cell count
Protocol: For examination of cell line-specific cytotoxicity, compounds were applied to human colorectal cancer cells (HCT116, denoted (1); SW480, denoted (2); Dld-1, denoted (3)) and human fibroblasts (HFF-1, denoted (4); HS-68, denoted (5)), cultured in Mc Coy's (1) and Dulbecco's Modified Eagles Medium (2-5), supplemented with 10% ((1)-(3)) and 20% ((4), (5)) fetal calf serum and 1% penicillin/streptomycin. Cells were grown in T75 flasks at 37° C., 5% CO2 and trypsinized when 60-80% confluent by adding 2 ml of 0.25% Trypsin-EDTA solution. Cells were then re-suspended into culture medium and approx. 750 cells, suspended in 45 microl medium, were plated into each well of a black 384-well plate for fluorescence imaging experiments. 24-36 hr later 5 microl compound solution (100 microM compound dissolved in ultra pure water containing 1% DMSO), were added to achieve a final concentration of 10 microM and were incubated for at least 72 hr. Compound incubation was terminated by (a) fixation and (b) permeabilisation of cells, followed by (c) fluorescence labeling of cell nuclei for cytometric quantification or by immunocytochemistry for microscopic evaluation of cell morphology. The three steps were performed by replacing the solution of the previous step in each well of a 384-well plate by (a) 30 microl PBS (phosphate buffered saline) containing 5% PFA (paraformaldehyde), (b) 30 microl PBS containing 0.2% TritonX-100 and (c) 10 microl PBS containing Hoechst-33342 for cytometry or Hoechst-33342, FITC (fluorescein isothiocyanate-) labeled α-tubulin antibodies and TRITC-(tetramethylrhodamine isothiocyanate-) labeled phalloidin antibodies for microscopy. Solutions were incubated for 15 (a,b) and 30 min (c) in the dark at room temperature. Cells were washed twice between each step with 30 microl PBS. The assay system was miniaturized and adapted to automated workflow using liquid-handling robotics.
Cell line-specific cytotoxicity was quantified by counting the number of Hoechst labeled nuclei per well of a 384-well plate using a plate cytometer. Data obtained with the cytometer was analysed using standard data analysis software.
The examination of the antiproliferative activity against human colon carcinoma cells HCT116 was carried out in analogy to example 35. […] Compounds of the present invention have potent antiproliferative activity against human colon carcinoma cells as shown for HCT116 in Table 6.

`CCOC(=O)C1=C(c2ccccc2)c2c(n(-c3ccccc3)c(=O)n3c(-c4cccc(OC)c4)nnc23)NC1C` (centres unmarked) [Example 16, 3-(3-Methoxy-phenyl)-7-methyl-4-oxo-5,9-diphenyl-4,5,6,7-tetrahydro-1,2,3a,5,6-pentaaza-cyclopenta[a]naphthalene-8-carboxylic acid ethyl ester] was tested, and the “Normalized Wnt pathway (inhibitory) activity” value (Wnt signalling pathway; 0.005 microM) was 0.9907, the “Normalized Wnt pathway (inhibitory) activity” value (Wnt signalling pathway; 0.015 microM) was 1.2275 and the “Normalized Wnt pathway (inhibitory) activity” value (Wnt signalling pathway; 0.046 microM) was 1.0533. For the same compound, the “Normalized Wnt pathway (inhibitory) activity” value (Wnt signalling pathway; 0.137 microM) was 1.0070, the “Normalized Wnt pathway (inhibitory) activity” value (Wnt signalling pathway; 0.412 microM) was 1.0435 and the “Normalized Wnt pathway (inhibitory) activity” value (Wnt signalling pathway; 1.235 microM) was 0.9565. For the same compound, the “Normalized Wnt pathway (inhibitory) activity” value (Wnt signalling pathway; 3.704 microM) was 0.5445, the “Normalized Wnt pathway (inhibitory) activity” value (Wnt signalling pathway; 11.111 microM) was 0.3755 and the “Normalized Wnt pathway (inhibitory) activity” value (Wnt signalling pathway; 33.333 microM) was 0.3063. The “Normalized Wnt pathway (inhibitory) activity” value (Wnt signalling pathway; 100.000 microM) was 0.1990, the IC50 (Wnt signalling pathway; Homo sapiens, HEK-293T, Hek293T, 24 h incubation, 5 nM-100 microM, read-out: IC50 of the Wnt signalling pathway inhibiting activity) was 2940 nM and the “Normalized toxicity values (Hek293T)” value (Hek293T; 0.005 microM) was 1.0215. The “Normalized toxicity values (Hek293T)” value (Hek293T; 0.015 microM) was 0.8660, the “Normalized toxicity values (Hek293T)” value (Hek293T; 0.046 microM) was 0.8370 and the “Normalized toxicity values (Hek293T)” value (Hek293T; 0.137 microM) was 0.8375. The “Normalized toxicity values (Hek293T)” value (Hek293T; 0.412 microM) was 0.8593, the “Normalized toxicity values (Hek293T)” value (Hek293T; 1.235 microM) was 0.8530 and the “Normalized toxicity values (Hek293T)” value (Hek293T; 3.704 microM) was 0.8778. For the same compound, the “Normalized toxicity values (Hek293T)” value (Hek293T; 11.111 microM) was 0.9213, the “Normalized toxicity values (Hek293T)” value (Hek293T; 33.333 microM) was 0.9450 and the “Normalized toxicity values (Hek293T)” value (Hek293T; 100.000 microM) was 0.9233. The “Normalized toxicity values (HepG2)” value (HepG2; 0.005 microM) was 1.0275, the “Normalized toxicity values (HepG2)” value (HepG2; 0.015 microM) was 0.9130 and the “Normalized toxicity values (HepG2)” value (HepG2; 0.046 microM) was 0.9210. The “Normalized toxicity values (HepG2)” value (HepG2; 0.137 microM) was 0.9210, the “Normalized toxicity values (HepG2)” value (HepG2; 0.412 microM) was 0.9183 and the “Normalized toxicity values (HepG2)” value (HepG2; 1.235 microM) was 0.9173. For the same compound, the “Normalized toxicity values (HepG2)” value (HepG2; 3.704 microM) was 1.0303, the “Normalized toxicity values (HepG2)” value (HepG2; 11.111 microM) was 1.1325 and the “Normalized toxicity values (HepG2)” value (HepG2; 33.333 microM) was 1.2425. For the same compound, the “Normalized toxicity values (HepG2)” value (HepG2; 100.000 microM) was 1.1200, the “Normalized cell count (HCT 116)” value ([1]; 0.005 microM) was 1 and the “Normalized cell count (HCT 116)” value ([1]; 0.015 microM) was 1.063. The “Normalized cell count (HCT 116)” value ([1]; 0.046 microM) was 1.163, the “Normalized cell count (HCT 116)” value ([1]; 0.137 microM) was 1.06 and the “Normalized cell count (HCT 116)” value ([1]; 0.412 microM) was 1.067. For the same compound, the “Normalized cell count (HCT 116)” value ([1]; 1.235 microM) was 1.125, the “Normalized cell count (HCT 116)” value ([1]; 3.704 microM) was 1.2 and the “Normalized cell count (HCT 116)” value ([1]; 11.111 microM) was 1.231. The “Normalized cell count (HCT 116)” value ([1]; 33.333 microM) was 0.52 and the “Normalized cell count (HCT 116)” value ([1]; 100.000 microM) was 0.5801.
